Bridge positions count the residues as written; N and C are the ends. Peptide text beside a SMILES is read from it.
Target: AgrC (Staphylococcus aureus, UniProt O07911)
Test: fluorescence polarization displacement of TAMRA-AIP-III D4A from AgrC nanodiscs
Assay type: binding
Settings: read-out: % reduction in polarization at 10 μM

Sequence of AgrC (O07911 entry or part of it): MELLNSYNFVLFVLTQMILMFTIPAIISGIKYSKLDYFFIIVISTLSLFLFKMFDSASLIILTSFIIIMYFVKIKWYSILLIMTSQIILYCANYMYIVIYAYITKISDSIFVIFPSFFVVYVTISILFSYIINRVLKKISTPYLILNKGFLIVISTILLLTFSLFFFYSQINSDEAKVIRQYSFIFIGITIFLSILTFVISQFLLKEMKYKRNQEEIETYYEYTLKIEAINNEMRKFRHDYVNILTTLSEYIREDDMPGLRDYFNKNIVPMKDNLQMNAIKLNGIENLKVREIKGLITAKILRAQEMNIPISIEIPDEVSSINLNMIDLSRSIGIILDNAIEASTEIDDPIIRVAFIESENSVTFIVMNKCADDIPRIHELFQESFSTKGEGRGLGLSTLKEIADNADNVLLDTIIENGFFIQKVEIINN

With `CC[C@H](C)[C@@H]1NC(=O)[C@H](Cc2ccccc2)NC(=O)[C@H](CC(=O)O)NC(=O)[C@@H](NC(=O)[C@@H](NC(=O)[C@H](CO)NC(=O)[C@@H](N)Cc2ccc(O)cc2)[C@@H](C)O)CSC(=O)[C@H](CCSC)NC1=O` [AIP-I] (H-YSTCDFIM; thioester 4-C) the inhibition at 10 µM was 62%.

— paper PMC12983307 (Journal of the American Chemical Society, 2026)
